Results: patent US9549558B2, “Herbicidal azines” (BASF SE, priority 2012, dated 2017)

Columns and labels:
Type in all cases: in vivo
STEME (Stellaria media) [1] = assay: greenhouse post-emergence herbicidal test
In short: (§1)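 Post-emergence greenhouse test on plants grown to 3–15 cm in loamy sand (~3.0% humus), sprayed with active ingredient suspended or emulsified in water. Plants held at 10-25 °C or 20-35 °C by species for 2 to 4 weeks, then damage scored visually 0–100 (100 = complete destruction of aerial parts, 0 = no damage).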

[2] = system: AMARE (Amaranthus retroflexus); assay: greenhouse post-emergence herbicidal test
In short: as §1

[3] = system: GERDI (Geranium dissectum); assay: greenhouse post-emergence herbicidal test
In short: as §1

[4] = system: CHEAL (Chenopodium album); assay: greenhouse post-emergence herbicidal test; conditions: 0.125 kg/ha
In short: as §1

[5] = system: POLCO (Polygonum convolvulus); assay: greenhouse pre-emergence herbicidal test
In short: (§2)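 Pre-emergence spray of aqueous suspension/emulsion immediately post-sowing; loamy sand, ~3.0% humus; hooded till rooted; 10-25° C. or 20-35° C. per species; 2-4 wk; scored 0 (no damage) to 100 (no emergence/aerial parts destroyed).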

SETVI (Setaria viridis) = assay: greenhouse pre-emergence herbicidal test
In short: as §2

[6] = system: ECHCG (Echinocloa crus-galli); assay: greenhouse pre-emergence herbicidal test
In short: as §2

LAMPU (Lamium purpureum) = assay: greenhouse pre-emergence herbicidal test
In short: as §2

[7] = system: CAPBP (Capsella bursa-pastoris); assay: greenhouse pre-emergence herbicidal test
In short: as §2

STEME (Stellaria media) [8] = assay: greenhouse pre-emergence herbicidal test
In short: as §2

[9] = system: ECHCG (Echinocloa crus-galli); assay: greenhouse post-emergence herbicidal test
In short: as §1

[10] = system: ABUTH (Abutilon theophrasti); assay: greenhouse post-emergence herbicidal test
In short: as §1

VIOAR (Viola arvensis) = assay: greenhouse pre-emergence herbicidal test; conditions: 500 g/ha
In short: as §2

[11] = system: APESV (Apera spica-venti); assay: greenhouse pre-emergence herbicidal test
In short: as §2

[12] = system: POLCO (Polygonum convolvulus); assay: greenhouse post-emergence herbicidal test; conditions: 0.062 kg/ha
In short: as §1

Q: With `CCC(C)(F)c1nc(N)nc(Nc2c(F)c(F)c(F)c(F)c2F)n1` (stereo not drawn) [Example 48] as the molecule, how does the herbicidal activity (STEME (Stellaria media) [1]; 0.125 kg/ha) read?
A: Its herbicidal activity is “very good (a very good herbicidal activity is given at values of at least 85)”.

Q: What about the herbicidal activity ([2]; 0.125 kg/ha) of the same molecule?
A: Its herbicidal activity is “very good (a very good herbicidal activity is given at values of at least 85)”.

Q: `CCC(F)(CC)c1nc(N)nc(Nc2c(F)c(F)c(F)c(F)c2F)n1` [Example 49] was tested. Which herbicidal activity ([3]; 0.125 kg/ha) did it give?
A: Its herbicidal activity is “very good (a very good herbicidal activity is given at values of at least 85)”.

Q: And the herbicidal activity [4]?
A: Its herbicidal activity is “very good (a very good herbicidal activity is given at values of at least 85)”.

Q: Which results are given for `CCC(C)(F)c1nc(N)nc(Nc2c(F)ccc(F)c2F)n1` (stereo not drawn) [Example 114]?
A: herbicidal activity ([5]; 32 g/ha): very good (a very good herbicidal activity is given at values of at least 85); herbicidal activity (SETVI (Setaria viridis); 32 g/ha): very good (a very good herbicidal activity is given at values of at least 85); herbicidal activity ([6]; 32 g/ha): very good (a very good herbicidal activity is given at values of at least 85)

Q: Which results are given for `CC1(c2nc(N)nc(Nc3c(F)c(F)c(F)c(F)c3F)n2)CCCCC1` [Example 88]?
A: herbicidal activity (LAMPU (Lamium purpureum); 125 g/ha): very good (a very good herbicidal activity is given at values of at least 85); herbicidal activity ([7]; 125 g/ha, CAPBP): very good (a very good herbicidal activity is given at values of at least 85); herbicidal activity (STEME (Stellaria media) [8]; 125 g/ha): very good (a very good herbicidal activity is given at values of at least 85)

Q: For `CC(C)(F)c1nc(N)nc(Nc2c(F)c(F)cc(F)c2F)n1` [Example 2, 6-(1-Fluoro-1-methyl-ethyl)-N4-(2,3,5,6-tetrafluorophenyl)-1,3,5-triazine-2,4-diamine], which herbicidal activity ([9]; 0.125 kg/ha) is on record?
A: Its herbicidal activity is “very good (a very good herbicidal activity is given at values of at least 85)”.

Q: And the herbicidal activity [4]?
A: The herbicidal activity was “very good (a very good herbicidal activity is given at values of at least 85)”.

Q: How did the herbicidal activity (STEME (Stellaria media) [1]; 0.062 kg/ha) turn out when `CC(C)(F)c1nc(N)nc(Nc2c(F)cccc2Cl)n1` [Example 35] was run?
A: The herbicidal activity was “very good (a very good herbicidal activity is given at values of at least 85)”.

Q: What about the herbicidal activity ([10]; 0.062 kg/ha) of the same molecule?
A: Its herbicidal activity is “very good (a very good herbicidal activity is given at values of at least 85)”.

Q: Which herbicidal activity (SETVI (Setaria viridis); 125 g/ha) does the source give for `CC(c1nc(N)nc(Nc2c(F)c(F)c(F)c(F)c2F)n1)C1CC1` (stereo not drawn) [Example 63] here?
A: Its herbicidal activity is “very good (a very good herbicidal activity is given at values of at least 85)”.

Q: And the herbicidal activity ([6]; 125 g/ha)?
A: Its herbicidal activity is “very good (a very good herbicidal activity is given at values of at least 85)”.

Q: And the herbicidal activity (STEME (Stellaria media) [8]; 125 g/ha)?
A: Its herbicidal activity is “very good (a very good herbicidal activity is given at values of at least 85)”.

Q: With `CCc1nc(N)nc(Nc2c(F)c(F)c(F)c(F)c2F)n1` [Example 4] as the molecule, how does the herbicidal activity (LAMPU (Lamium purpureum); 0.125 kg/ha) read?
A: The herbicidal activity was “very good (a very good herbicidal activity is given at values of at least 85)”.

Q: What about the herbicidal activity ([7]; 0.125 kg/ha, CAPBP) of the same molecule?
A: Its herbicidal activity is “very good (a very good herbicidal activity is given at values of at least 85)”.

Q: For `CC(C)c1nc(N)nc(Nc2c(F)c(F)c(F)c(F)c2F)n1` [Example 7], which herbicidal activity ([3]; 0.125 kg/ha) is on record?
A: The herbicidal activity was “very good (a very good herbicidal activity is given at values of at least 85)”.

Q: And the herbicidal activity ([10]; 0.125 kg/ha)?
A: Its herbicidal activity is “very good (a very good herbicidal activity is given at values of at least 85)”.

Q: Which results are given for `COCN(c1nc(N)nc(C(C)(C)F)n1)c1c(F)c(F)c(F)c(F)c1F` [Example 305]?
A: herbicidal activity ([5]; 500 g/ha): very good (a very good herbicidal activity is given at values of at least 85); herbicidal activity (STEME (Stellaria media) [8]; 500 g/ha): very good (a very good herbicidal activity is given at values of at least 85); herbicidal activity (VIOAR (Viola arvensis)): very good (a very good herbicidal activity is given at values of at least 85)

Q: What does the source list for `CC(F)(F)c1nc(N)nc(Nc2c(F)c(F)c(F)c(F)c2F)n1` [Example 9]?
A: herbicidal activity ([3]; 0.062 kg/ha): very good (a very good herbicidal activity is given at values of at least 85); herbicidal activity ([10]; 0.062 kg/ha): very good (a very good herbicidal activity is given at values of at least 85)

Q: How did the herbicidal activity ([11]; 494 g/ha) turn out when `Nc1nc(Nc2c(F)c(F)c(F)c(F)c2F)nc(C2(F)C(F)(F)C(F)(F)C(F)(F)C(F)(F)C2(F)F)n1` [Example 175] was run?
A: Its herbicidal activity is “good (a good herbicidal activity is given at values of at least 70)”.

Q: For `CC(C)(Cl)c1nc(N)nc(Nc2c(F)cccc2F)n1` [Example 78], which herbicidal activity ([11]; 125 g/ha) is on record?
A: The herbicidal activity was “good (a good herbicidal activity is given at values of at least 70)”.

Q: How did the herbicidal activity ([9]; 0.062 kg/ha) turn out when `CC(C)(F)c1nc(N)nc(Nc2c(F)ccc(F)c2F)n1` [Example 27] was run?
A: Its herbicidal activity is “very good (a very good herbicidal activity is given at values of at least 85)”.

Q: And the herbicidal activity ([2]; 0.062 kg/ha)?
A: Its herbicidal activity is “very good (a very good herbicidal activity is given at values of at least 85)”.

Q: Which herbicidal activity ([9]; 0.062 kg/ha) does the source give for `Nc1nc(Nc2c(F)c(F)c(F)c(F)c2F)nc(C2CCC2)n1` [Example 57] here?
A: Its herbicidal activity is “very good (a very good herbicidal activity is given at values of at least 85)”.

Q: What about the herbicidal activity ([2]; 0.062 kg/ha) of the same molecule?
A: The herbicidal activity was “very good (a very good herbicidal activity is given at values of at least 85)”.

Q: Which herbicidal activity (LAMPU (Lamium purpureum); 250 g/ha) does the source give for `CC(C)(F)c1nc(N)nc(Nc2c(F)cc(Cl)cc2F)n1` [Example 97] here?
A: The herbicidal activity was “good (a good herbicidal activity is given at values of at least 70)”.

Q: What about the herbicidal activity ([7]; 250 g/ha, CAPBP) of the same molecule?
A: Its herbicidal activity is “good (a good herbicidal activity is given at values of at least 70)”.

Q: With `CC(C)(F)c1nc(N)nc(Nc2c(F)ccc(Cl)c2F)n1` [Example 32] as the molecule, how does the herbicidal activity [12] read?
A: Its herbicidal activity is “very good (a very good herbicidal activity is given at values of at least 85)”.

Q: What about the herbicidal activity ([3]; 0.062 kg/ha) of the same molecule?
A: The herbicidal activity was “very good (a very good herbicidal activity is given at values of at least 85)”.

Q: Which results are given for `CC(C)(C)c1nc(N)nc(Nc2c(F)c(F)c(Br)c(F)c2F)n1` [Example 160]?
A: herbicidal activity (LAMPU (Lamium purpureum); 125 g/ha): very good (a very good herbicidal activity is given at values of at least 85); herbicidal activity ([7]; 125 g/ha, CAPBP): very good (a very good herbicidal activity is given at values of at least 85); herbicidal activity (STEME (Stellaria media) [8]; 125 g/ha): very good (a very good herbicidal activity is given at values of at least 85)

Q: `CC(F)c1nc(N)nc(Nc2cc(F)c(F)c(F)c2)n1` (stereo not drawn) [Example 16] was tested. Which herbicidal activity (STEME (Stellaria media) [1]; 0.125 kg/ha) did it give?
A: The herbicidal activity was “moderate (A moderate herbicidal activity is given at values of at least 60)”.

Q: And the herbicidal activity ([10]; 0.125 kg/ha)?
A: The herbicidal activity was “good (a good herbicidal activity is given at values of at least 70)”.

Q: What does the source list for `CC(C)(F)c1nc(N)nc(Nc2c(F)c(F)cc(-c3ccccc3)c2F)n1` [Example 192]?
A: herbicidal activity ([9]; 1000 g/ha): very good (a very good herbicidal activity is given at values of at least 85); herbicidal activity ([2]; 1000 g/ha): very good (a very good herbicidal activity is given at values of at least 85); herbicidal activity ([10]; 1000 g/ha): very good (a very good herbicidal activity is given at values of at least 85)

Q: How did the herbicidal activity ([11]; 0.031 kg/ha) turn out when `CC(C)(F)c1nc(N)nc(Nc2ccc([N+](=O)[O-])cc2F)n1` [Example 39] was run?
A: The herbicidal activity was “moderate (A moderate herbicidal activity is given at values of at least 60)”.

Q: How did the herbicidal activity (STEME (Stellaria media) [1]; 0.125 kg/ha) turn out when `CC(C)(Cl)c1nc(N)nc(Nc2c(F)c(F)c(F)c(F)c2F)n1` [Example 1, 6-(1-chloro-1-methyl-ethyl)-N4-(2,3,4,5,6-pentafluorophenyl)-1,3,5-triazine-2,4-diamine] was run?
A: The herbicidal activity was “very good (a very good herbicidal activity is given at values of at least 85)”.

Q: And the herbicidal activity ([2]; 0.125 kg/ha)?
A: The herbicidal activity was “very good (a very good herbicidal activity is given at values of at least 85)”.

Q: Which herbicidal activity ([5]; 1000 g/ha) does the source give for `CCC(C)(Cl)c1nc(N)nc(Nc2c(F)c(F)c(F)c(F)c2F)n1` (stereo not drawn) [Example 200] here?
A: Its herbicidal activity is “very good (a very good herbicidal activity is given at values of at least 85)”.

Q: And the herbicidal activity ([7]; 1000 g/ha, CACBP)?
A: Its herbicidal activity is “very good (a very good herbicidal activity is given at values of at least 85)”.

Q: And the herbicidal activity ([6]; 1000 g/ha)?
A: The herbicidal activity was “very good (a very good herbicidal activity is given at values of at least 85)”.

Q: With `CC(C)(C)c1nc(N)nc(Nc2c(F)c(F)c(F)c(F)c2F)n1` [Example 52] as the molecule, how does the herbicidal activity ([3]; 0.062 kg/ha) read?
A: The herbicidal activity was “very good (a very good herbicidal activity is given at values of at least 85)”.

Q: What about the herbicidal activity ([10]; 0.062 kg/ha) of the same molecule?
A: The herbicidal activity was “very good (a very good herbicidal activity is given at values of at least 85)”.

Q: For `Nc1nc(Nc2ccc(Br)cc2F)nc(C(F)F)n1` [Example 157], which herbicidal activity ([9]; 500 g/ha) is on record?
A: The herbicidal activity was “very good (a very good herbicidal activity is given at values of at least 85)”.

Q: And the herbicidal activity ([10]; 500 g/ha)?
A: The herbicidal activity was “very good (a very good herbicidal activity is given at values of at least 85)”.

Q: How did the herbicidal activity ([9]; 500 g/ha) turn out when `CC(C)(F)c1nc(N)nc(Nc2ccc(C(=O)O)cc2F)n1` [Example 173] was run?
A: The herbicidal activity was “good (a good herbicidal activity is given at values of at least 70)”.

Q: `CC(C)(F)c1nc(N)nc(Nc2c(F)cccc2F)n1` [Example 24] was tested. Which herbicidal activity ([5]; 0.125 kg/ha) did it give?
A: Its herbicidal activity is “very good (a very good herbicidal activity is given at values of at least 85)”.

Q: What about the herbicidal activity (SETVI (Setaria viridis); 0.125 kg/ha) of the same molecule?
A: The herbicidal activity was “very good (a very good herbicidal activity is given at values of at least 85)”.
